Each structure is given as a SMILES string. pEC50, pIC50, pKi: −log10 of the molar value. Active and inactive are the calls of the source. The calls are words filed in the database; no cut-off is given here.

The source of these data is ChEMBL document CHEMBL4011631, “Trisubstituted Pyridinylimidazoles as Potent Inhibitors of the Clinically Resistant L858R/T790M/C797S EGFR Mutant: Targeting of Both Hydrophobic Regions and the Phosphate Binding Site” (J Med Chem, 2017).

The target in series [1] is T1, Epidermal growth factor receptor (Homo sapiens, UniProt P00533, L858R).
Series [2] has as its target T2, Epidermal growth factor receptor (Homo sapiens, UniProt P00533). Format: ADME.
Description: Inhibition of human N-terminal GST-fused EGFR cytoplasmic domain (669 to 1210 residues) expressed in baculovirus using TK-substrate-biotin preincubated for 30 mins followed by substrate addition measured after 25 mins by HTFR assay
For series [3], the target named is T3, Epidermal growth factor receptor (Homo sapiens, UniProt P00533, L858R/T790M).
The subject of series [4] is A-431. The experiment in a line: cells. To be noted: Homo sapiens, A-431, 96 h. Type of series: ADME, cell-based.
Description: Antiproliferative activity against human A431 cells harboring wild type EGFR assessed as growth inhibition after 96 hrs by CellTiter-Glo assay
For series [5], the system named is NCI-H1975. The experiment in a line: cells. Type of series: functional, cell-based. To be noted: Homo sapiens, NCI-H1975, 96 h.
Series [6] concerns the target T1, Epidermal growth factor receptor. This is another data set of the same source.
In series [7] the target is T3, Epidermal growth factor receptor. The source holds these as a separate data set.
For series [8], the target named is T2, Epidermal growth factor receptor. The settings on record: read-out: Ratio.
Description: Ratio of Kinact for human N-terminal GST-fused EGFR cytoplasmic domain (669 to 1210 residues) expressed in baculovirus to Ki for human N-terminal GST-fused EGFR cytoplasmic domain (669 to 1210 residues) expressed in baculovirus
Series [9] has the same target. To be noted: for kinact: human.
Description: Inhibition of human N-terminal GST-fused EGFR cytoplasmic domain (669 to 1210 residues) expressed in baculovirus using TK-substrate-biotin incubated for 2 to 90 mins by HTFR assay
The target of series [10] is Epidermal growth factor receptor (Homo sapiens, UniProt P00533, C797S/L858R/T790M). Description: Inhibition of human EGFR T790M/C797S/L858R triple mutant preincubated for 20 mins followed by [33P]ATP addition measured after 2 hrs.
Series [11] in a line: Drug degradation in human liver microsomes at 100 uM preincubated for 5 mins with NADPH-regenerating system followed by liver microsomes addition measured after 240 mins by LC-MS analysis. Format: ADME, microsome. The settings on record: read-out: Drug degradation. (Liver microsomes are a subcellular fraction often used to study metabolism.)
The test system of series [12] is Epidermal growth factor receptor (Homo sapiens), P00533 [T790M]. The experiment in a line: Covalent binding affinity to EGFR T790M mutant (unknown origin) at 100 uM after 1 hr by mass spectrometric analysis.

In general, pIC50 refers to −log10 of the IC50, conventionally taken in molar units. Higher therefore signals a low IC50. What is called pEC50 is the negative decadic logarithm of the EC50, by convention in mol/L. Higher therefore signals a small EC50. By pKi is commonly meant the Ki on a negative log10 scale, so that one unit is a factor of ten. One may read the kinact as the rate constant of inactivation at saturating inhibitor. For `C=CC(=O)NCCSc1nc(-c2ccc(F)cc2)c(-c2ccnc(Nc3ccccc3)c2)[nH]1`, the pIC50 in [1] was 8.66; in series [2], 8.80; in series [3], 7.42. The pEC50 in series [4] is 4.92; in series [5] it was 5.62. The negative logarithm of the Ki (pKi) was 9.42 in series [6], 8.22 in [7] and 8.80 in series [9]. Also, in series [8], the kinact/KI stood at 940000 M⁻¹ s⁻¹. In series [9], the kinact is 0.0015 s⁻¹.

For the compound `C=CC(=O)Nc1ccc(OC)c(Nc2cc(-c3[nH]c(CCCO)nc3-c3ccc(F)cc3)ccn2)c1`, the pIC50 in series [1] was more than 9.00; in [2] it was more than 9.00; in series [3], more than 9.00; in series [10], 8.10. For the same compound, the figures for the pEC50 in [4] and in series [5] were 5.40 and 6.40, respectively. Further, the metabolised at 4 h, 100 µM in series [11] stood at 9%. Further, the pKi was 10.52 in [6], 10.00 in series [7] and 10.15 in series [9]. In addition, the kinact/KI in series [8] was determined as 1.5e+07 M⁻¹ s⁻¹. The kinact in series [9] was 0.00267 s⁻¹.

Regarding `C=CC(=O)Nc1cccc(Nc2cc(-c3[nH]c(SC)nc3-c3ccc(F)cc3)ccn2)c1`, the pIC50 in series [1] is more than 9.00; in series [2] it was more than 9.00; in [3] it was 8.48. Further, in series [12], the result was Active. Further, the pEC50 was 5.77 in series [4] and 6.72 in series [5].

On to `C=CC(=O)Nc1cc(Nc2cc(-c3[nH]c(SC)nc3-c3ccc(F)cc3)ccn2)cc(N2CCN(C)CC2)c1`, for which the pIC50 is more than 9.00 in series [1], more than 9.00 in series [2], more than 9.00 in series [3] and 7.96 in [10]. Moreover, the pEC50 in [4] was 5.85; in series [5], 5.96. In series [11], the metabolised at 4 h, 100 µM stood at 27%.

With `CCC(=O)Nc1ccc(OC)c(Nc2cc(-c3[nH]c(SC)nc3-c3ccc(F)cc3)ccn2)c1`, the negative logarithm of the IC50 (pIC50) in series [1] was more than 9.00; in series [2] it was more than 9.00; in [3], 8.30; in [10], 6.78. Further, the negative logarithm of the EC50 (pEC50) is 5.11 in series [4] and 5.37 in series [5].

Regarding `C=CC(=O)Nc1ccc(OC)c(Nc2cc(-c3[nH]c(SC)nc3-c3ccc(F)cc3)ccn2)c1`, the outcome in series [12] was Active. Further, the values for the pEC50 in [4] and in series [5] were 5.39 and more than 7.85, respectively. Also, the metabolised at 4 h, 100 µM in [11] was found to be 23%.

With `C=CC(=O)Nc1cc(Nc2cc(-c3[nH]c(SC)nc3-c3ccc(F)cc3)ccn2)cc(N2CCOCC2)c1`, the pIC50 is more than 9.00 in series [1], more than 9.00 in series [2], more than 9.00 in series [3] and 7.28 in series [10]. In addition, the pEC50 is 5.82 in [4] and 5.89 in series [5].

In the case of `CCC(=O)Nc1ccc(OC)c(Nc2cc(-c3[nH]c(CCCO)nc3-c3ccc(F)cc3)ccn2)c1`, the negative-log IC50 (pIC50) in series [1] is more than 9.00; in series [2], more than 9.00; in series [3], more than 9.00; in series [10], 8.15. Moreover, the figures for the pEC50 in [4] and in series [5] were 4.77 and 5.14, respectively.

Turning to `CCC(=O)NCCSc1nc(-c2ccc(F)cc2)c(-c2ccnc(Nc3ccccc3)c2)[nH]1`, the figures for the pIC50 in [1], in series [2] and in [3] were 8.49, 7.48 and 7.28, respectively. The pEC50 in [4] is 4.80; in series [5] it was 5.01.

Turning to `C=CC(=O)Nc1ccc(OC)c(Nc2cc(-c3[nH]c(SC)nc3C3CC3)ccn2)c1`, the pIC50 in series [1] is more than 9.00; in series [2], 8.64; in [3] it was 8.13. Moreover, the pEC50 in [4] was 5.10; in [5] it was 5.64.

Take `C=CC(=O)NCCSc1nc(-c2ccccc2)c(-c2ccnc(Nc3ccccc3)c2)[nH]1`: the negative logarithm of the IC50 (pIC50) is 8.77 in series [1], 7.92 in series [2] and 7.54 in series [3]. In addition, the negative logarithm of the EC50 (pEC50) in series [4] was 4.96; in [5], 5.49.

Take `CCC(=O)Nc1cccc(Nc2cc(-c3[nH]c(SC)nc3-c3ccc(F)cc3)ccn2)c1`: the negative logarithm of the IC50 (pIC50) is 8.17 in series [1], 7.66 in series [2], 7.03 in series [3] and 6.65 in [10]. Also, the result in [12] was inactive. Also, the results for the pEC50 in [4] and in series [5] were 5.82 and 5.66, respectively.

In the case of `C=CC(=O)Nc1cccc(Nc2cc(-c3[nH]c(SC)nc3-c3ccc(F)cc3)ccn2)n1`, the pIC50 in [1] is more than 9.00; in [2] it was more than 9.00; in [3], 8.51. The pEC50 in series [4] is 5.77; in series [5], 5.82.

On to `C=CC(=O)Nc1ccc(OC)c(Nc2cc(-c3cnc(SC)[nH]3)ccn2)c1`, for which the pIC50 in series [1] is 8.25; in series [2] it was 7.77; in [3] it was 8.07. Further, the pEC50 is 5.39 in series [4] and 5.70 in series [5].
